In ChEMBL document CHEMBL1147389, “Two bioactive pterocarpans from Erythrina burana” (J Nat Prod, 1993):

Tests used:
P388 = assay: Cytotoxicity against mouse P388 cells; type: functional, cell-based
CHO [1] = assay: Cytotoxicity against CHO cells; type: cell-based; conditions: Cricetulus griseus
Saccharomyces cerevisiae [2] = assay: DNA damaging activity against RS188N rad DNA repair gene expressing Saccharomyces cerevisiae assessed as drug level required to produce 12 mm zone of inhibition after 48 hrs; type: functional
Saccharomyces cerevisiae [3] = assay: DNA damaging activity against RS321 […] DNA repair gene deficient Saccharomyces cerevisiae mutant assessed as drug level required to produce 12 mm zone of inhibition after 48 hrs; type: functional
Saccharomyces cerevisiae [4] = assay: DNA damaging activity against RS167 N rad6 DNA repair gene deficient Saccharomyces cerevisiae mutant assessed as drug level required to produce 12 mm zone of inhibition after 48 hrs; type: functional
CHO [5] = assay: Cytotoxicity against p-glycoprotein overexpressing CHO cells; type: cell-based; conditions: Cricetulus griseus
Saccharomyces cerevisiae [6] = assay: DNA damaging activity against RS322 YK rad52 DNA repair gene deficient Saccharomyces cerevisiae mutant assessed as drug level required to produce 12 mm zone of inhibition after 48 hrs; type: functional

Row | SMILES | IC50 (P388) | IC50 (CHO [1]) | IC12 (Saccharomyces cerevisiae [2]) | IC12 (Saccharomyces cerevisiae [3]) | IC12 (Saccharomyces cerevisiae [4]) | IC50 (CHO [5]) | IC12 (Saccharomyces cerevisiae [6])
1 | COc1ccc2c(c1CC=C(C)C)O[C@H]1c3ccc(O)cc3OC[C@@]21O [ERYTHRABYSSIN I] | > 10 µM | > 20 µM | 330 µg/mL | 108 µg/mL | 540 µg/mL | 4 µM | 80 µg/mL
2 | CC(C)=CCc1c(O)ccc2c1O[C@H]1c3ccc(O)cc3OC[C@@H]21 [PHASEOLLIDIN] | > 10 µM | 4 µM | 5500 µg/mL | 400 µg/mL | > 1000 µg/mL | 7.6 µM | 500 µg/mL
